{
  "source": "patent US10829796B2",
  "about": "“Bacteria identification and antimicrobial susceptibility test” (priority 2015, dated 2020)",
  "assay_in_all_cases": "Antibiotic susceptibility testing (colour of media), spiked milk",
  "assay_type_in_all_cases": "cell-based",
  "key": {"[1]": {"system": "Streptococcus uberis", "details": "T~16 h, 37° C., bacteria samples 6d, plate configuration #3", "method": "(§1) Tables 36 to 38 which follow show further examples of antibiotic susceptibility testing performed in accordance with the present invention. Table 36, antibiotic susceptibility testing of Staphylococcus aureus in Mueller Hinton and Tryptic Soy Broth at pre-incubation and at between 15-24 h. Tables 37 and 38, antimicrobial susceptibility testing of Streptococcus uberis and E. coli with the addition of gram negative specific antibiotic aztreonam. Tables 38 to 49 show further examples of antibiotic susceptibility testing and the outcomes are aligned with the described inventions."}, "[2]": {"system": "Staphylococcus aureus", "details": "T~16 h, 37° C., plate configuration #3", "method": "as §1"}, "[3]": {"system": "Escherichia coli", "details": "37° C., plate configuration #3", "method": "as §1"}},
  "data": [
    {"smiles": "Cc1onc(-c2ccccc2Cl)c1C(=O)N[C@@H]1C(=O)N2[C@@H]1SC(C)(C)[C@@H]2C(=O)O", "note": "[cloxacillin]", "values": [
      {"measurement": "Colour of media in each well", "setting": "[1]; Benzyl Penicillin or Cloxacillin 1 μg/ml", "value": "red"},
      {"measurement": "Colour of media in each well", "setting": "[1]; Benzyl Penicillin or Cloxacillin 10 μg/ml", "value": "red"},
      {"measurement": "Colour of media in each well", "setting": "[1]; Benzyl Penicillin or Cloxacillin 100 μg/ml", "value": "red"},
      {"measurement": "Colour of media in each well", "setting": "[1]; Benzyl Penicillin or Cloxacillin 1,000 μg/ml", "value": "red"},
      {"measurement": "Colour of media in each well", "setting": "[1]; Benzyl Penicillin or Cloxacillin 10,000 μg/ml", "value": "red"},
      {"measurement": "Colour of media in each well", "setting": "[2]; bacteria samples 5c, Benzyl Penicillin or Cloxacillin 1 μg/ml", "value": "red"},
      {"measurement": "Colour of media in each well", "setting": "[2]; bacteria samples 5c, Benzyl Penicillin or Cloxacillin 10 μg/ml", "value": "red"},
      {"measurement": "Colour of media in each well", "setting": "[2]; bacteria samples 5c, Benzyl Penicillin or Cloxacillin 100 μg/ml", "value": "red"},
      {"measurement": "Colour of media in each well", "setting": "[2]; bacteria samples 5c, Benzyl Penicillin or Cloxacillin 1,000 μg/ml", "value": "red"},
      {"measurement": "Colour of media in each well", "setting": "[2]; bacteria samples 5c, Benzyl Penicillin or Cloxacillin 10,000 μg/ml", "value": "red"},
      {"measurement": "Colour of media in each well", "setting": "[2]; bacteria samples 5e, Benzyl Penicillin or Cloxacillin 1 μg/ml", "value": "red"},
      {"measurement": "Colour of media in each well", "setting": "[2]; bacteria samples 5e, Benzyl Penicillin or Cloxacillin 10 μg/ml", "value": "red"},
      {"measurement": "Colour of media in each well", "setting": "[2]; bacteria samples 5e, Benzyl Penicillin or Cloxacillin 100 μg/ml", "value": "red"},
      {"measurement": "Colour of media in each well", "setting": "[2]; bacteria samples 5e, Benzyl Penicillin or Cloxacillin 1,000 μg/ml", "value": "red"},
      {"measurement": "Colour of media in each well", "setting": "[2]; bacteria samples 5e, Benzyl Penicillin or Cloxacillin 10,000 μg/ml", "value": "red"},
      {"measurement": "Colour of media in each well", "setting": "[3]; T~16 h, bacteria samples 4c, Benzyl Penicillin or Cloxacillin 1 μg/ml", "value": "yellow"},
      {"measurement": "Colour of media in each well", "setting": "[3]; T~16 h, bacteria samples 4c, Benzyl Penicillin or Cloxacillin 10 μg/ml", "value": "yellow"},
      {"measurement": "Colour of media in each well", "setting": "[3]; T~16 h, bacteria samples 4c, Benzyl Penicillin or Cloxacillin 100 μg/ml", "value": "yellow"},
      {"measurement": "Colour of media in each well", "setting": "[3]; T~16 h, bacteria samples 4c, Benzyl Penicillin or Cloxacillin 1,000 μg/ml", "value": "yellow"},
      {"measurement": "Colour of media in each well", "setting": "[3]; T~16 h, bacteria samples 4c, Benzyl Penicillin or Cloxacillin 10,000 μg/ml", "value": "red"},
      {"measurement": "Colour of media in each well", "setting": "[3]; t~16 h, bacteria samples 4e, Benzyl Penicillin or Cloxacillin 1 μg/ml", "value": "yellow"},
      {"measurement": "Colour of media in each well", "setting": "[3]; t~16 h, bacteria samples 4e, Benzyl Penicillin or Cloxacillin 10 μg/ml", "value": "yellow"},
      {"measurement": "Colour of media in each well", "setting": "[3]; t~16 h, bacteria samples 4e, Benzyl Penicillin or Cloxacillin 100 μg/ml", "value": "yellow"},
      {"measurement": "Colour of media in each well", "setting": "[3]; t~16 h, bacteria samples 4e, Benzyl Penicillin or Cloxacillin 1,000 μg/ml", "value": "red"},
      {"measurement": "Colour of media in each well", "setting": "[3]; t~16 h, bacteria samples 4e, Benzyl Penicillin or Cloxacillin 10,000 μg/ml", "value": "red"}
    ]}
  ]
}
